From patent US20090246787A1, “METHOD AND APPARATUS FOR DETERMINING CHEMOSENSITIVITY” (SYSMEX CORPORATION, priority 2008, published 2009)
Read-outs that look alike come from different tables or passages of the source.

Experiments:
[1] = system: HS 578T cells; test: MTT living-cell assay, doxorubicin IC50; type: cell-based; details: Homo sapiens, 72 h, cultured 3 days with doxorubicin, MTT method, read-out: IC50 class (chemosensitivity estimated by IC50)
Procedure: (§1) Human breast cancer cell lines, that is, HS 578T cells (ATCC HTB-126R), MDA-MB-435s cells (ATCC HTB-129), BT20 cells (ATCC HTB-19), CAMA-1 cells (ATCC HTB-21), T47D cells (ATCC HTB-133), MDA-MB-361 cells (ATCC HTB-27), UACC893 cells (ATCC CRL-1902) and BT474 cells (ATCC HTB-20) were purchased from American Type Culture Collection (ATCC) and cultured under culture conditions recommended by ATCC, as follow.
HS 578T cells were cultured in 5 vol % CO2 at 37° C., in a Dulbecco's modified Eagle medium containing 4 mM of L-glutamine, 10% by mass of fetal bovine serum and 0.01 mg/L of bovine insulin, with glucose at a final concentration of 4.5 g/L and sodium bicarbonate at a final concentration of 1.5/L. […]
(§2) The number of living cells in each of the cultures thus obtained was determined by an MTT method of using 3-(4,5-dimethylthiazol-2-yl)-2,5-diphenyl-2H-tetrazolium bromide. The number of living cells to be inoculated was established for each type of cell so as to enable the influence of the drug to be evaluated in the measurement range where the primary correlation between the number of cells in the serial dilution to be inoculated and the determined number of the living cells was kept high.
(§3) Thereafter, the number of living cells in each of the cultures thus obtained was measured by the MTT method of using 3-(4,5-dimethylthiazol-2-yl)-2,5-diphenyl-2H-tetrazolium bromide. […]

[2] = system: MDA-MB-435S cells; test: MTT living-cell assay, doxorubicin IC50; type: cell-based; details: Homo sapiens, 72 h, cultured 3 days with doxorubicin, MTT method, read-out: IC50 class (chemosensitivity estimated by IC50)
[3] = system: BT20 cells; test: MTT living-cell assay, doxorubicin IC50; type: cell-based; details: Homo sapiens, BT-20, 72 h, cultured 3 days with doxorubicin, MTT method, read-out: IC50 class (chemosensitivity estimated by IC50)
Procedure: as §1
BT-20 cells were cultured in 5 vol % CO2 at 37° C., in an Eagle minimum essential medium containing Earle's BSS, 2 mM of L-glutamine, 1.0 mM of sodium pyruvate, 0.1 mM of nonessential amino acids, 1.5 g/L of sodium bicarbonate and 10% by mass of fetal bovine serum. […]
as §2, §3

[4] = system: CAMA-1 cells; test: MTT living-cell assay, doxorubicin IC50; type: cell-based; details: Homo sapiens, 72 h, cultured 3 days with doxorubicin, MTT method, read-out: IC50 class (chemosensitivity estimated by IC50)
Procedure: CAMA-1 cells were cultured in 5 vol % CO2 at 37° C., in an Eagle minimum essential medium containing Earle's BSS, 2 mM of L-glutamine, 1.0 mM of sodium pyruvate, 0.1 mM of nonessential amino acids, 1.5 g/L of sodium bicarbonate and 10% by mass of fetal bovine serum.
(§4) Each of the breast cancer cell lines, that is, HS 578T cells, MDA-MB-435S cells, BT20 cells, CAMA-1 cells, T47D cells, MDA-MB-361 cells, UACC893 cells and BT474 cells, was diluted stepwise to produce 7 serial cell dilutions.
as §2
Thereafter, the number of living cells in each of the cultures thus obtained was measured by the MTT method of using 3-(4,5-dimethylthiazol-2-yl)-2,5-diphenyl-2H-tetrazolium bromide. This measurement was conducted 4 times. […]

[5] = system: T47D cells; test: MTT living-cell assay, doxorubicin IC50; type: cell-based; details: Homo sapiens, 72 h, cultured 3 days with doxorubicin, MTT method, read-out: IC50 class (chemosensitivity estimated by IC50)
Procedure: as §1
T-47D cells were cultured in 5 vol % CO2 at 37° C., in an RPMI 1640 medium containing 2 mM of L-glutamine, 1.0 mM of HEPES, 1.0 mM of sodium pyruvate, 4.5 g/L of glucose, 1.5 g/L of sodium bicarbonate, 10% by mass of fetal bovine serum and 0.2 unit/mL of bovine insulin. […]
as §2, §3

[6] = system: MDA-MB-361 cells; test: MTT living-cell assay, doxorubicin IC50; type: cell-based; details: Homo sapiens, 72 h, cultured 3 days with doxorubicin, MTT method, read-out: IC50 class (chemosensitivity estimated by IC50)
[7] = system: UACC893 cells; test: MTT living-cell assay, doxorubicin IC50; type: cell-based; details: Homo sapiens, UACC-893, 72 h, cultured 3 days with doxorubicin, MTT method, read-out: IC50 class (chemosensitivity estimated by IC50)
[8] = system: BT474 cells; test: MTT living-cell assay, doxorubicin IC50; type: cell-based; details: Homo sapiens, BT-474, 72 h, cultured 3 days with doxorubicin, MTT method, read-out: IC50 class (chemosensitivity estimated by IC50)
Procedure: BT-474 cells were cultured in 5 vol % CO2 at 37° C., in a Dulbecco's modified medium containing 10% by mass of fetal bovine serum.
as §4, §2
Thereafter, the number of living cells in each of the cultures thus obtained was measured by the MTT method of using 3-(4,5-dimethylthiazol-2-yl)-2,5-diphenyl-2H-tetrazolium bromide. This measurement was conducted 4 times.
On the basis of the determined number of living cells, the concentration of doxorubicin (IC50) at which the ratio of the number of living cells in the culture not treated with doxorubicin to the number of living cells in the culture treated with doxorubicin became 50% was determined.

[9] = system: CDK1; details: 100 nM doxorubicin, 24 hours
[10] = system: CDK1; details: 100 nM doxorubicin, 24 hours; remark: listed apart in the source
[11] = used generally in chemotherapy; cited from earlier work

COc1cccc2c1C(=O)c1c(O)c3c(c(O)c1C2=O)C[C@@](O)(C(=O)CO)C[C@@H]3O[C@H]1C[C@H](N)[C@H](O)[C@H](C)O1 [doxorubicin]
IC50 [1]: < 0.2 µM | IC50 [2]: < 0.2 µM | IC50 [3]: < 0.2 µM | IC50 [4]: < 0.2 µM | IC50 [5]: > 0.2 µM | IC50 [6]: > 0.2 µM | IC50 [7]: > 0.2 µM | IC50 [8]: > 0.2 µM | difference of CDK1 activity level (not treated − treated with doxorubicin) ([9]; BT20 cells): great difference | ratio of CDK1 activity level (treated with doxorubicin / not treated) ([9]; BT20 cells): low | difference of CDK1 activity level (not treated − treated with doxorubicin) ([9]; BT474 cells): a little difference, or a minus difference | ratio of CDK1 activity level (treated with doxorubicin / not treated) ([9]; BT474 cells): high | difference of CDK1 activity level (not treated − treated with doxorubicin) ([9]; CAMA-1 cells): great difference | ratio of CDK1 activity level (treated with doxorubicin / not treated) ([9]; CAMA-1 cells): low | difference of CDK1 activity level (not treated − treated with doxorubicin) ([9]; HS 578T cells): great difference | ratio of CDK1 activity level (treated with doxorubicin / not treated) ([9]; HS 578T cells): low | difference of CDK1 activity level (not treated − treated with doxorubicin) ([9]; MDA-MB-361 cells): a little difference, or a minus difference | ratio of CDK1 activity level (treated with doxorubicin / not treated) ([9]; MDA-MB-361 cells): high | difference of CDK1 activity level (not treated − treated with doxorubicin) ([9]; MDA-MB-435S cells): great difference | ratio of CDK1 activity level (treated with doxorubicin / not treated) ([9]; MDA-MB-435S cells): low | difference of CDK1 activity level (not treated − treated with doxorubicin) ([9]; T47D cells): a little difference, or a minus difference | ratio of CDK1 activity level (treated with doxorubicin / not treated) ([9]; T47D cells): high | difference of CDK1 activity level (not treated − treated with doxorubicin) ([9]; UACC893 cells): a little difference, or a minus difference | ratio of CDK1 activity level (treated with doxorubicin / not treated) ([9]; UACC893 cells): high | difference of CDK1 specific activity (not treated − treated with doxorubicin) ([10]; BT20 cells): high | ratio of CDK1 specific activity (treated with doxorubicin / not treated) ([10]; BT20 cells): low | difference of CDK1 specific activity (not treated − treated with doxorubicin) ([10]; BT474 cells): a little difference, or a minus difference | ratio of CDK1 specific activity (treated with doxorubicin / not treated) ([10]; BT474 cells): high | difference of CDK1 specific activity (not treated − treated with doxorubicin) ([10]; CAMA-1 cells): high | ratio of CDK1 specific activity (treated with doxorubicin / not treated) ([10]; CAMA-1 cells): low | difference of CDK1 specific activity (not treated − treated with doxorubicin) ([10]; HS 578T cells): high | ratio of CDK1 specific activity (treated with doxorubicin / not treated) ([10]; HS 578T cells): low | difference of CDK1 specific activity (not treated − treated with doxorubicin) ([10]; MDA-MB-361 cells): a little difference, or a minus difference | ratio of CDK1 specific activity (treated with doxorubicin / not treated) ([10]; MDA-MB-361 cells): high | difference of CDK1 specific activity (not treated − treated with doxorubicin) ([10]; MDA-MB-435S cells): high | ratio of CDK1 specific activity (treated with doxorubicin / not treated) ([10]; MDA-MB-435S cells): low | difference of CDK1 specific activity (not treated − treated with doxorubicin) ([10]; T47D cells): a little difference, or a minus difference | ratio of CDK1 specific activity (treated with doxorubicin / not treated) ([10]; T47D cells): high | difference of CDK1 specific activity (not treated − treated with doxorubicin) ([10]; UACC893 cells): a little difference, or a minus difference | ratio of CDK1 specific activity (treated with doxorubicin / not treated) ([10]; UACC893 cells): high | effective blood concentration [11]: about 200 nM
